Here are results for 23 compounds from patent US9365576B2, “Pyrrolopyrrolidinone compounds” (Novartis AG, priority 2012, dated 2016).

Structures are written as SMILES. pIC50: −log10 of the molar value.

Chain of human MDM2 protein (amino acids 2-188) (Q00987 2-188): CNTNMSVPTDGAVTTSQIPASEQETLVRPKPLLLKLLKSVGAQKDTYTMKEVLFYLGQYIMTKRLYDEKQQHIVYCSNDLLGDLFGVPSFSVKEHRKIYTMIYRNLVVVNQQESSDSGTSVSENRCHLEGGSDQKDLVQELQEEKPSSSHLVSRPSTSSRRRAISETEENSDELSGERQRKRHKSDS

For the assay, the target named is human MDM2 protein (amino acids 2-188) (Homo sapiens (Human), UniProt Q00987). Description: TR-FRET assay, p53-MDM2 Assay 2 (modified). The assay is classed as binding. The settings on record: TR-FRET; 0.1 nM MDM2, 0.1 nM Europium labeled streptavidin, Tecan genios Pro reader; read-out: IC50 p53-MDM2 Assay 2. On the procedure:
The inhibition of p53-MDM2 and p53-MDM4 interactions is measured by time resolved fluorescence energy transfer (TR-FRET). Fluorescence energy transfer (or Foerster resonance energy transfer) describes an energy transfer between donor and acceptor fluorescent molecules. For this assay, human MDM2 protein (amino acids 2-188) and human MDM4 protein (amino acids 2-185), tagged with a C-terminal biotin moiety, are used in combination with a Europium labeled streptavidin (Perkin Elmer, Inc., Waltham, Mass., USA) serving as the donor fluorophore. The p53 derived, Cy5 labeled peptide Cy5-[…] (p53 aa18-26) is the energy acceptor. Upon excitation of the donor molecule at 340 nm, binding interaction between MDM2 or MDM4 and the p53 peptide induces energy transfer and enhanced response at the acceptor emission wavelength at 665 nm. […] The ratiometric FRET assay readout is calculated from the raw data of the two distinct fluorescence signals measured in time resolved mode (fluorescence 665 nm/fluorescence 620 nm×1000).
After addition of 1.25 nM MDM2-biotinylated or 2.5 nM MDM4-biotinylated (internal preparations), and 0.625 nM Europium labeled streptavidin (Perkin Elmer), the solution is pre-incubated for 15 minutes at room temperature, then 10 nM Cy5-p53 peptide (internal preparation) is added before an incubation at room temperature for 15 minutes prior to reading the plate. For measurement of samples, a Victor II microplate reader (Perkin Elmer) is used with the following settings: Excitation 340 nm, Emission Donor 620 nm and Emission Acceptor 665 nm. IC50 values are calculated by curve fitting using XLfit. If not specified, reagents are purchased from Sigma-Aldrich Chemie GmBH, Buchs, Switzerland.
For orientation: TR-FRET usually uses a lanthanide donor and a delayed reading to cut background.
As a reminder, the pIC50 is −log10 of the IC50, conventionally taken in molar units. On to `COC[C@@H](C)n1c(-c2cnc(OC)nc2OC)cc2c1C(c1ccc(C#N)cc1)N(c1ccc(F)c(Cl)c1)C2=O` (stereo partly drawn) [Example 222, 4-[(R,S)-5-(3-Chloro-4-fluoro-phenyl)-2-(2,4-dimethoxy-pyrimidin-5-yl)-1-((R)-2-methoxy-1-methyl-ethyl)-4-oxo-1,4,5,6-tetrahydro-pyrrolo[3,4-b]pyrrol-6-yl]-benzonitrile], for which the negative-log IC50 (pIC50) was 9.52.
On to `COc1nc(N)ncc1-c1cc2c(n1C(C)C)C(c1ccc(Cl)cc1)N(c1c[nH]c(=O)c(Cl)c1)C2=O` (centres unmarked) [Example 138, 2-(2-Amino-4-methoxy-pyrimidin-5-yl)-5-(5-chloro-6-oxo-1,6-dihydro-pyridin-3-yl)-6-(4-chloro-phenyl)-1-isopropyl-5,6-dihydro-1H-pyrrolo[3,4-b]pyrrol-4-one], for which the pIC50 is 9.47.
`COc1ncc(-c2cc3c(n2C(C)C)C(c2ccc(C#N)c(F)c2)N(c2cc(Cl)cn(C)c2=O)C3=O)c(OC)n1` (centres unmarked) [Example 198, 4-[5-(5-Chloro-1-methyl-2-oxo-1,2-dihydro-pyridin-3-yl)-2-(2,4-dimethoxy-pyrimidin-5-yl)-1-isopropyl-4-oxo-1,4,5,6-tetrahydro-pyrrolo[3,4-b]pyrrol-6-yl]-2-fluoro-benzonitrile]: the pIC50 is 9.16.
The figure for `COc1ncc(-c2cc3c(n2C(C)C)[C@H](c2ccc(Cl)cc2C)N(c2cc(Cl)c(=O)n(C)c2)C3=O)c(OC)n1` [Example 160, (S)-5-(5-Chloro-1-methyl-6-oxo-1,6-dihydro-pyridin-3-yl)-6-(4-chloro-2-methyl-phenyl)-2-(2,4-dimethoxy-pyrimidin-5-yl)-1-isopropyl-5,6-dihydro-1H-pyrrolo[3,4-b]pyrrol-4-one] is 9.84; for `CNc1ncc(-c2cc3c(n2C(C)C)C(c2ccc(Cl)cc2)N(c2cc(Cl)cn(C)c2=O)C3=O)c(OC)n1` (centres unmarked) [Example 72, 5-(5-Chloro-1-methyl-2-oxo-1,2-dihydro-pyridin-3-yl)-6-(4-chloro-phenyl)-1-isopropyl-2-(4-methoxy-2-methylamino-pyrimidin-5-yl)-5,6-dihydro-1H-pyrrolo[3,4-b]pyrrol-4-one] it is 9.53.
`COc1nc(N(C)C)ncc1-c1cc2c(n1C(C)C)[C@@H](c1ccc(C#N)cc1)N(c1ccc(F)c(Cl)c1)C2=O` [Example 170, 4-[(R)-5-(3-Chloro-4-fluoro-phenyl)-2-(2-dimethylamino-4-methoxy-pyrimidin-5-yl)-1-isopropyl-4-oxo-1,4,5,6-tetrahydro-pyrrolo[3,4-b]pyrrol-6-yl]-benzonitrile]: the negative-log IC50 (pIC50) is 7.50.
In the case of `CNC(=O)Cc1cnc(OC)c(-c2cc3c(n2C(C)C)C(c2ccc(C#N)cc2)N(c2cccc(Cl)c2F)C3=O)c1` (centres unmarked) [Example 85, 2-{5-[5-(3-Chloro-2-fluoro-phenyl)-6-(4-cyano-phenyl)-1-isopropyl-4-oxo-1,4,5,6-tetrahydro-pyrrolo[3,4-b]pyrrol-2-yl]-6-methoxy-pyridin-3-yl}-N-methyl-acetamide], the pIC50 was 8.50.
On to `COc1ncc(-c2cc3c(n2C(C)C)C(C)(c2ccc(Cl)cc2)N(c2cc(Cl)c(=O)n(C)c2)C3=O)c(OC)n1` (centres unmarked) [Example 117, 5-(5-Chloro-1-methyl-6-oxo-1,6-dihydro-pyridin-3-yl)-6-(4-chloro-phenyl)-2-(2,4-dimethoxy-pyrimidin-5-yl)-1-isopropyl-6-methyl-5,6-dihydro-1H-pyrrolo[3,4-b]pyrrol-4-one], for which the negative-log IC50 (pIC50) was 9.68.
`COc1ncc(-c2cc3c(n2C(C)C)C(c2ccc(C#N)cc2)N(c2cc(C)nn2C)C3=O)c(OC)n1` (centres unmarked) [Example 179, 4-[2-(2,4-Dimethoxy-pyrimidin-5-yl)-5-(2,5-dimethyl-2H-pyrazol-3-yl)-1-isopropyl-4-oxo-1,4,5,6-tetrahydro-pyrrolo[3,4-b]pyrrol-6-yl]-benzonitrile]: the pIC50 is 8.46.
As for `COc1ccc(C(=O)N(C)C)cc1-c1cc2c(n1C(C)C)[C@H](c1ccc(Cl)cc1)N(c1cc(Cl)ccc1C)C2=O` [Example 20, 3-[(S)-5-(5-Chloro-2-methyl-phenyl)-6-(4-chloro-phenyl)-1-isopropyl-4-oxo-1,4,5,6-tetrahydro-pyrrolo[3,4-b]pyrrol-2-yl]-4-methoxy-N,N-dimethyl-benzamide], the pIC50 is 10.12.
Take `CNc1ncc(-c2cc3c(n2C(C)C)C(c2ccc(Cl)cc2)N(c2c[nH]c(=O)c(Cl)c2)C3=O)c(OC)n1` (centres unmarked) [Example 152, 5-(5-Chloro-6-oxo-1,6-dihydro-pyridin-3-yl)-6-(4-chloro-phenyl)-1-isopropyl-2-(4-methoxy-2-methylamino-pyrimidin-5-yl)-5,6-dihydro-1H-pyrrolo[3,4-b]pyrrol-4-one]: the pIC50 is 9.78.
The figure for `COc1ccccc1-c1cc2c(n1C(C)C)C(c1ccc(Cl)cc1)N(c1cc(Cl)ccc1C#N)C2=O` (centres unmarked) [Example 96, 4-Chloro-2-[6-(4-chloro-phenyl)-1-isopropyl-2-(2-methoxy-phenyl)-4-oxo-4,6-dihydro-1H-pyrrolo[3,4-b]pyrrol-5-yl]-benzonitrile] is 8.71.
As to `COc1nc(N(C)C)ncc1-c1cc2c(n1C(C)C)C(c1ccc(C#N)cc1)N(c1ccc(F)c(Cl)c1)C2=O` (centres unmarked) [Example 93, 4-[5-(3-Chloro-4-fluoro-phenyl)-2-(2-dimethylamino-4-methoxy-pyrimidin-5-yl)-1-isopropyl-4-oxo-1,4,5,6-tetrahydro-pyrrolo[3,4-b]pyrrol-6-yl]-benzonitrile], the negative logarithm of the IC50 (pIC50) is 9.44.
Take `COc1nc(N(C)C)ncc1-c1cc2c(n1C(C)C)[C@H](c1ccc(C#N)cc1)N(C1CCOCC1)C2=O` [Example 190, 4-[(S)-2-(2-Dimethylamino-4-methoxy-pyrimidin-5-yl)-1-isopropyl-4-oxo-5-(tetrahydro-pyran-4-yl)-1,4,5,6-tetrahydro-pyrrolo[3,4-b]pyrrol-6-yl]-benzonitrile]: the pIC50 was 9.20.
The figure for `CNC(=O)c1ccc(OC)c(-c2cc3c(n2C(C)C)[C@@H](c2ccc(Cl)cc2)N(c2cc(Cl)ccc2C)C3=O)c1` [Example 19, 3-[(R)-5-(5-Chloro-2-methyl-phenyl)-6-(4-chloro-phenyl)-1-isopropyl-4-oxo-1,4,5,6-tetrahydro-pyrrolo[3,4-b]pyrrol-2-yl]-4-methoxy-N-methyl-benzamide] is 6.74.
On to `COc1ccccc1-c1c(F)c2c(n1C(C)C)C(c1ccc(Cl)cc1)N(c1cc(Cl)ccc1C)C2=O` (centres unmarked) [Example 115, 5-(5-Chloro-2-methyl-phenyl)-6-(4-chloro-phenyl)-3-fluoro-1-isopropyl-2-(2-methoxy-phenyl)-5,6-dihydro-1H-pyrrolo[3,4-b]pyrrol-4-one], for which the negative logarithm of the IC50 (pIC50) is 9.31.
The figure for `CNC(=O)Cc1ccc(OC)c(-c2cc3c(n2C(C)C)C(c2ccc(Cl)cc2)N(c2cc(Cl)ccc2C)C3=O)c1` (centres unmarked) [Example 81, 2-{3-[5-(5-Chloro-2-methyl-phenyl)-6-(4-chloro-phenyl)-1-isopropyl-4-oxo-1,4,5,6-tetrahydro-pyrrolo[3,4-b]pyrrol-2-yl]-4-methoxy-phenyl}-N-methyl-acetamide] is 9.83.
With `COc1ccncc1-c1cc2c(n1C(C)C)C(c1ccc(Cl)cc1C)N(c1cccc(Cl)c1F)C2=O` (centres unmarked) [Example 6, 5-(3-Chloro-2-fluoro-phenyl)-6-(4-chloro-2-methyl-phenyl)-1-isopropyl-2-(4-methoxy-Pyridin-3-yl)-5,6-dihydro-1H-pyrrolo[3,4-b]pyrrol-4-one], the pIC50 is 9.76.
Regarding `[2H]C([2H])([2H])Oc1ncc(-c2cc3c(n2C(C)C)[C@@H](c2ccc(Cl)cc2)N(c2cc(Cl)c(=O)n(C)c2)C3=O)c(OC([2H])([2H])[2H])n1` [Example 219, (R)-5-(5-Chloro-1-methyl-6-oxo-1,6-dihydro-pyridin-3-yl)-6-(4-chloro-phenyl)-2-(2,4-d6-dimethoxy-pyrimidin-5-yl)-1-isopropyl-5,6-dihydro-1H-pyrrolo[3,4-b]pyrrol-4-one], the pIC50 was 7.55.
Regarding `COc1nc(N)ncc1-c1cc2c(n1C(C)C)C(c1ccc(C#N)cc1)N(c1cc(Cl)ccc1C)C2=O` (centres unmarked) [Example 43], the pIC50 is 9.40.
With `COC[C@@H](C)n1c(-c2cnc(N)nc2OC)cc2c1C(c1ccc(C#N)cc1)N(c1ccc(F)c(Cl)c1)C2=O` (some centres unmarked) [Example 223], the negative logarithm of the IC50 (pIC50) was 9.20.
For `COc1ncc(-c2cc3c(n2C(C)C)C(c2ccc(Cl)cc2)N(C2CN(C)C(=O)N(C)C2)C3=O)c(OC)n1` (centres unmarked) [Example 110, 6-(4-Chloro-phenyl)-2-(2,4-dimethoxy-pyrimidin-5-yl)-5-(1,3-dimethyl-2-oxo-hexahydro-pyrimidin-5-yl)-1-isopropyl-5,6-dihydro-1H-pyrrolo[3,4-b]pyrrol-4-one], the pIC50 is 9.13.
On to `COc1nc(N)ncc1-c1cc2c(n1C(C)C)C(c1ccc(Cl)cc1)N(c1cc(Cl)cn(C)c1=O)C2=O` (centres unmarked) [Example 71, 2-(2-Amino-4-methoxy-pyrimidin-5-yl)-5-(5-chloro-1-methyl-2-oxo-1,2-dihydro-pyridin-3-yl)-6-(4-chloro-phenyl)-1-isopropyl-5,6-dihydro-1H-pyrrolo[3,4-b]pyrrol-4-one], for which the pIC50 was 9.20.
